According to patent US9045524B2, “Selective caspase inhibitors and uses thereof” (NOVAGENESIS FOUNDATION, priority 2009, dated 2015):
Like-named read-outs stand apart in the source and are kept apart here.

Legend:
[1] = tested on: EAE in C57BL/6 mice; experiment: Chronic EAE mouse model (MOG35-55 immunization), daily clinical score and body weight; type: in vivo; design: key to Delay in onset of the disease / Reduction in severity of the disease / Reduction in body weight loss: +++: high level improvement; ++: moderate improvement; +: small improvement; −: no improvement; settings: for Delay in onset of the disease / Reduction in body weight loss / Reduction in severity of the disease: average overall effects on the EAE model, i.p.
Text: The aim of this study was to verify the effectiveness of compounds in a chronic mouse animal model of EAE. EAE is a good proof-of-principle model of neurodegeneration since it encompasses degeneration or destruction of practically all the cells in the central nervous system, includes most major immunomodulatory components, and is able to maintain normal innate regenerative functions in the animal. This is a standard model (Antel J P et al., J Neurosci Res. 1997, 50: 345-353) used mainly to mimic the course evolution of Multiple Sclerosis (MS) in humans, and is commonly used for studying disease mechanisms and testing potential therapies. EAE is induced by immunization with myelin proteins, leading to development of myelin-specific T cells. These autoreactive T cells traffic into CNS parenchyma where they initiate an inflammatory cascade through recruitment of other cells such as monocytes and neutrophils. Accumulation of immune cells within CNS leads to myelin damage, axonal loss and clinical deficit in affected animals. EAE can be induced in a variety of species and strains of animals [mice, Rat, marmoset monkey, rhesus macaques] using various CNS antigens [Myelin Oligodendrocyte Glycoprotein (MOG), proteolipid protein (PLP) and myelin basic protein (MBP)]. Seven to 8 week old female C57BL/6 mice were purchased from Charles River Laboratories, and housed at MISPRO™ animal facility for one week before experimentation for adaptation to the new environment. All proper animal experimentation and ethics approvals were obtained prior to the start of any experiments. Mice were immunized subcutaneously with 100 μg of MOG35-55 (Sheldon Biotechnology Centre, McGill University) in CFA containing 5 mg/ml of desiccated (killed and dried) Mycobacterium tuberculosis H37Ra (Difco, Inc), at two sites on the back. The mice were then injected with 200 ng of pertussis toxin (List Biological Laboratories, Inc) in PBS intraperitoneally on days 0 and 2 using 25 gauge needles and scored daily using an EAE clinical scale as detailed below (Touil T et al., J Neurol Sci. 2008, 271:191-202; Antel J P et al., 1997, supra; Owens T et al., Curr Pharm Des. 2005, 1:1031-1037).
EAE was clinically assessed throughout the experiments by daily scoring using a scale from 0 to 5 as follows: partial limp tail, 0.5; full limp tail, 1; limp tail and waddling gait, 1.5; paralysis of one hind limb, 2; paralysis of one hind limb and partial paralysis of other hind limb, 2.5; paralysis of both hind limbs, 3; ascending paralysis, 3.5; paralysis of trunk, 4; moribund, 4.5; death, 5. In all the EAE models a body weight loss is always associated with the clinical signs. This body weight loss is associated with the loss of the function and the paralysis of the muscle (atrophy inducing loss of weight). For animals showing a clinical sign of 2 or more, the food and the water were presented inside the cage to facilitate eating and drinking.
At the onset of clinical signs of EAE, the mice were treated with 200 μl of Compound 51, 53, 57, 59, 101, 104, 105, 111 or 123 dissolved in 2.5% Dimethyl sulfoxide (DMSO) in PBS, while placebo groups were treated with 2.5% Dimethyl sulfoxide (DMSO) in PBS only, by intraperitoneal injection at different time of the clinical evolution.

[2] = tested on: Glo3/7; experiment: Glo3/7 assay; type: biochemical
[3] = biological target: Caspase-5 (Homo sapiens (Human), UniProt P51878); experiment: Caspase-5 Inhibitor Drug Screening Kit, fluorometric (AFC liberation); type: biochemical; settings: for IC50: 30-minute incubation at 37° C., approximations of the average values, read-out: Caspase enzymatic activity, IC50 (uM) Caspase 5; for inhibitory activity for caspase-5: at the tested dose-range (1 to 3333 nM)
Experimental: (§1) The level of inhibition of caspase-1, -3, -5, -7, -9 activity was determined by comparison of the relative fluorescence intensity in samples with or without the compound.

[4] = tested on: proteolytic cleavage of PARP (poly ADP-ribose polymerase) in Hela cells; experiment: Inhibition of staurosporine-induced PARP cleavage in live Hela cells; type: cell-based; settings: Hela cells, staurosporine
Experimental: To test the efficacy of caspase-3 inhibitors at the cellular level, the ability of selected compounds to inhibit the proteolytic cleavage of PARP (poly ADP-ribose polymerase) was evaluated in live Hela cells.
Briefly, in this assay Hela cells are seeded in 96 well plates and incubated for 4 hours with staurosporine, a well characterized inducer of apoptosis, alone or together with different concentrations of compound (50, 25, 10 and 3 uM). After formaldehyde-based fixation, the cells are stained with a fluorescein-labeled anti-cleaved PARP antibody (Cell signaling, Cat#: 9547) and counterstained with Hoechst33342 (Invitrogen, Cat#: H3570) to mark all nuclei. Fluorescence images are taken on a Cellomics™ microscope system (Thermo Scientific, Pittsburgh, USA) with the Hoechst stain in the blue channel and the cleaved PARP antibody stain in the green channel. The percentage of cleaved PARP positive cells is determined by calculating the ratio between nuclei with a cleaved PARP antibody staining above a certain threshold and all (Hoechst positive) nuclei. The efficacy of caspase-3 inhibition is determined by calculating the ratio between cleaved PARP positive cells after staurosporine incubation together with compounds and staurosporine incubation without compounds.

[5] = biological target: Caspase-7 (Homo sapiens (Human), UniProt P55210); experiment: Caspase-7 Inhibitor Drug Screening Kit, fluorometric (AFC liberation); type: biochemical; settings: 30-minute incubation at 37° C.; approximations of the average values; read-out: Caspase enzymatic activity, IC50 (uM) Caspase 7
Experimental: as §1

[6] = biological target: Caspase-1 (Homo sapiens (Human), UniProt P29466); experiment: Caspase-1 Inhibitor Drug Screening Kit, fluorometric (AFC liberation); type: biochemical; settings: for IC50: 30-minute incubation at 37° C., approximations of the average values, read-out: Caspase enzymatic activity, IC50 (uM) Caspase 1; for inhibitory activity for caspase-1: at the tested dose-range (1 to 3333 nM)
Experimental: as §1

[7] = biological target: Caspase-9 (Homo sapiens (Human), UniProt P55211); experiment: Caspase-9 Inhibitor Drug Screening Kit, fluorometric (AFC liberation); type: biochemical; settings: for IC50: 30-minute incubation at 37° C., approximations of the average values, read-out: Caspase enzymatic activity, IC50 (uM) Caspase 9; for inhibitory activity for caspase-9: at the tested dose-range (1 to 3333 nM)
Experimental: as §1

[8] = biological target: Caspase-3 (Homo sapiens (Human), UniProt P42574); experiment: Caspase-3 Inhibitor Drug Screening Kit, fluorometric (AFC liberation); type: biochemical
Experimental: as §1

[9] = FIG. 4, administration for 15 days from day 12 post-immunization, versus placebo
[10] = FIG. 2, i.p. from day 10 to 16 post immunization, versus placebo
[11] = 30-minute incubation at 37° C., approximations of the average values, read-out: Caspase enzymatic activity, IC50 (uM) Caspase 3

Chain of Caspase-7 (P55210 whole entry): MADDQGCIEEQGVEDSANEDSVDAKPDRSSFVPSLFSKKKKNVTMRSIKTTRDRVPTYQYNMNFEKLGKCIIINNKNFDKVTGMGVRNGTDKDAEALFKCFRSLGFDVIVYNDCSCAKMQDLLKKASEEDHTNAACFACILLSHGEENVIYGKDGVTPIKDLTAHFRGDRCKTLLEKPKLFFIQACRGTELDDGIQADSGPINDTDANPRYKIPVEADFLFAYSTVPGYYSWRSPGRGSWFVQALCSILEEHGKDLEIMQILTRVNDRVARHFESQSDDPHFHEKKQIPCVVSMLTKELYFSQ
Chain of Caspase-9 (P55211 whole entry): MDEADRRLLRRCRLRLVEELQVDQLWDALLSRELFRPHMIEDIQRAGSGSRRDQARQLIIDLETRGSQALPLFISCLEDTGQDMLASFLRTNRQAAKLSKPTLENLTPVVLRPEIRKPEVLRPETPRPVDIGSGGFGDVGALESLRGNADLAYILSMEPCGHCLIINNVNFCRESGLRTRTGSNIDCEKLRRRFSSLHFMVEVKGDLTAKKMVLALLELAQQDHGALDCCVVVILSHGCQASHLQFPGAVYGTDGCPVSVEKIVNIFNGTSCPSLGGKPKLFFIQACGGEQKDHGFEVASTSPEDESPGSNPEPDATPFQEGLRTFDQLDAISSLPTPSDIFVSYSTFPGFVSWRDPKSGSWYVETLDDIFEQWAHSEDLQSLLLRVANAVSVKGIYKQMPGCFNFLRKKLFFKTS
Chain of Caspase-5 (P51878 137-434): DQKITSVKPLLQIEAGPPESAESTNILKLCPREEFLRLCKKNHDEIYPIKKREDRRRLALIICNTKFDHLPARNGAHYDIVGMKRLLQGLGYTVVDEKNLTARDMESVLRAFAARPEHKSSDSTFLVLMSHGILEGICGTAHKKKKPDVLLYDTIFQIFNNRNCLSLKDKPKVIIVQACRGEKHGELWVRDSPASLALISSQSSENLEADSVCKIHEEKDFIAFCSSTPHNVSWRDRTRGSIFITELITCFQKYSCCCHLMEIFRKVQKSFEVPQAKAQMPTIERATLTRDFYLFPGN
Chain of Caspase-3 (P42574 29-277): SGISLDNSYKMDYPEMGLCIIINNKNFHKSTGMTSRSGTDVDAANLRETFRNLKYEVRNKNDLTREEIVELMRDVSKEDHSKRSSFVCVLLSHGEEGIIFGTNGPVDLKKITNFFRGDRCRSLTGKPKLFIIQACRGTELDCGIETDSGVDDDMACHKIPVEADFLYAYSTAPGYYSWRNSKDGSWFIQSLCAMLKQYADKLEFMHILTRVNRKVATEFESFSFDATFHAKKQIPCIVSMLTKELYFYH
Chain of Caspase-1 (P29466 120-404): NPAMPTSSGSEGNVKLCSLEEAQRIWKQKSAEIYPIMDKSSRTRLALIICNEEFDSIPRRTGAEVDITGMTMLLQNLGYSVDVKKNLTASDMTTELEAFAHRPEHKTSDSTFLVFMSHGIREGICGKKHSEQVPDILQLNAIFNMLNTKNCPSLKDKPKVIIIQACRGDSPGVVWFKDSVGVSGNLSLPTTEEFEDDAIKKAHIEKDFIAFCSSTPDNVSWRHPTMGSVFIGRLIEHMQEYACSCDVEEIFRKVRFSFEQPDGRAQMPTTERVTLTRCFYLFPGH

SMILES: COC(=O)CC[C@H](NC(=O)[C@H](CC(=O)OC)NC(=O)OCc1ccccc1)C(=O)N[C@H](C(=O)N[C@@H](CC(=O)OC)C(=O)CF)C(C)C [zDEVD-FMK, z-D(OMe)E(OMe)VD(OMe)FMK, reference compound]
- onset of the disease [1, 9]: delayed the onset
- severity of the disease [1, 9]: reduced the severity of the disease

SMILES: CC(C)[C@H](NC(=O)[C@H](Cc1ccc2ccccc2n1)NC(=O)[C@H](CC(=O)O)NC(=O)OCc1ccccc1)C(=O)N[C@H](/C=C/S(C)(=O)=O)CC(=O)O [Compound 55, Z-Asp-Ala(2′-quinolyl)-Val-Aspmethyl vinyl sulfone]
- IC50 [2]: 0.1 µM
- IC50 [3]: > 10 µM
- inhibitory activity for caspase-5 [3]: No significant inhibitory activity
- effectivity in inhibiting PARP cleavage [4]: showing effectivity especially relative to DEVD-fmk
- IC50 [5]: 1.4 µM
- IC50 [6]: > 10 µM
- inhibitory activity for caspase-1 [6]: No significant inhibitory activity
- IC50 [7]: > 3.33 µM
- inhibitory activity for caspase-9 [7]: No significant inhibitory activity

SMILES: COC(=O)C[C@@H](/C=C(\Cl)S(C)(=O)=O)NC(=O)[C@@H](NC(=O)[C@@H](NC(=O)[C@H](CC(=O)OC)NC(=O)OCc1ccccc1)c1ccccc1)C(C)C [Compound 104, Z-Asp(β-methyl)-phenylglycine-Val-Asp(β-methyl)achlorovinyl Methylsulfone]
- Disease onset [1, 10]: delayed
- Loss of body weight [1, 10]: did not show and significant difference compared to placebo
- severity of the disease [1, 10]: reduced significantly at the early stage of the disease
- Delay in onset of the disease [1]: ++
- Reduction in body weight loss [1]: −
- Reduction in severity of the disease [1]: +

SMILES: COC(=O)C[C@@H](/C=C(\Cl)S(C)(=O)=O)NC(=O)[C@@H](NC(=O)[C@@H](NC(=O)[C@H](CC(=O)OC)NC(=O)OCc1ccccc1)C1Cc2ccccc2C1)C(C)C [Compound 105, Z-Asp(β-methyl)-indanylglycine-Val-Asp(β-methyl)achlorovinyl Methylsulfone]
- Disease onset [1, 10]: delayed
- Loss of body weight [1, 10]: less than placebo
- severity of the disease [1, 10]: reduced significantly at the early stage of the disease
- Delay in onset of the disease [1]: ++
- Reduction in body weight loss [1]: ++
- Reduction in severity of the disease [1]: +

SMILES: CC(C)[C@H](NC(=O)[C@H](Cc1ccc2ccccc2n1)NC(=O)[C@H](CC(=O)O)NC(=O)OCc1ccccc1)C(=O)N[C@H](/C=C/S(=O)(=O)Oc1ccccc1)CC(=O)O [Compound 65, Z-Asp-Ala(2′-quinolyl)-Val-Aspphenoxy vinyl sulfone]
- IC50 [2]: 0.2 µM
- IC50 [3]: > 3.33 µM
- IC50 [8, 11]: 0.01 µM
- IC50 [5]: 0.4 µM
- IC50 [6]: 1.2 µM
- IC50 [7]: 0.3 µM

SMILES: CC(C)[C@H](NC(=O)[C@H](Cc1c[nH]c2ccccc12)NC(=O)[C@H](CC(=O)O)NC(=O)OCc1ccccc1)C(=O)N[C@H](/C=C/S(C)(=O)=O)CC(=O)O [Compound 88, Z-Asp-Trp-Val-Aspmethyl vinyl sulfone]
- IC50 [2]: 0.7 µM
- IC50 [3]: > 3.33 µM
- IC50 [8, 11]: 0.04 µM
- IC50 ([8]; read-out: IC50 caspase-3): 0.03 to 0.09 µM
- IC50 [5]: 1.1 µM
- IC50 [6]: 0.7 µM
- IC50 [7]: > 3.33 µM

SMILES: CC(C)[C@H](NC(=O)C(Cc1ccc2ccccc2n1)NC(=O)[C@H](CC(=O)O)NC(=O)OCc1ccccc1)C(=O)N[C@H](/C=C/S(=O)(=O)c1ccccc1)CC(=O)O (stereo partly drawn) [Compound 70, Z-Asp-(D,L Ala(2′-quinolyl))-Val-Aspphenyl Vinylsulfone]
- IC50 [2]: 20 µM
- IC50 [3]: > 10 µM
- IC50 [8, 11]: 0.3 µM
- IC50 [5]: > 10 µM
- IC50 [6]: > 3.33 µM
- IC50 [7]: > 10 µM

SMILES: CC(C)[C@H](NC(=O)OCc1ccccc1)C(=O)N[C@H](/C=C/S(C)(=O)=O)CC(=O)O [Compound 61, z-Val-AspVSmethyl]
- IC50 [2]: 50 µM
- IC50 [3]: > 3.33 µM
- activity against caspase-3 [8]: abolished completely the activity
- IC50 [8, 11]: > 3.33 µM
- IC50 [5]: > 3.33 µM
- IC50 [6]: > 3.33 µM
- IC50 [7]: > 3.33 µM

SMILES: CC(C)[C@H](NC(=O)[C@@H](NC(=O)[C@H](CC(=O)O)NC(=O)OCc1ccccc1)C1Cc2ccccc2C1)C(=O)N[C@H](/C=C/S(=O)(=O)C(C)C)CC(=O)O [Compound 68, Z-Asp-Indanylglycine-Val-Aspisopropyl Vinyl Sulfone]
- IC50 [2]: 1.1 µM
- IC50 [3]: > 3.33 µM
- IC50 [8, 11]: 0.2 µM
- IC50 [5]: 1.5 µM
- IC50 [6]: > 3.33 µM
- IC50 [7]: > 3.33 µM

SMILES: CC(C)(C)OC(=O)C[C@@H](/C=C/S(=O)(=O)c1ccccc1)NC(=O)OC(C)(C)C [Compound 36, Boc-Asp(O-tBu)VSphenyl]
- IC50 [2]: > 50 µM
- IC50 [3]: > 3.33 µM
- IC50 [8, 11]: > 2 µM
- IC50 [5]: > 3.33 µM
- IC50 [6]: > 3.33 µM
- IC50 [7]: > 3.33 µM

SMILES: CC(C)[C@H](NC(=O)[C@H](Cc1ccc2ccccc2n1)NC(=O)[C@H](CC(=O)O)NC(=O)OCc1ccccc1)C(=O)N[C@H](/C=C/S(=O)(=O)c1ccccc1)CC(=O)O [Compound 63, Z-Asp-Ala(2′-quinolyl)-Val-Aspphenyl vinyl sulfone]
- IC50 [2]: 0.9 µM
- IC50 [3]: > 3.33 µM
- inhibitory activity for caspase-5 [3]: No significant inhibitory activity
- IC50 [8, 11]: 0.04 µM
- selectivity of Caspase-3 over Caspase-7 based on IC50 values ([8]; IC50 caspase-7 versus caspase-3): ~50 fold
- IC50 [5]: 1.8 µM
- IC50 [6]: > 3.33 µM
- inhibitory activity for caspase-1 [6]: No significant inhibitory activity
- IC50 [7]: > 3.33 µM
- inhibitory activity for caspase-9 [7]: No significant inhibitory activity

SMILES: CC(C)[C@H](NC(=O)[C@H](Cc1ccc(OC(C)(C)C)cc1)NC(=O)OCc1ccccc1)C(=O)N[C@@H](C)C(=O)N[C@H](/C=C/S(=O)(=O)c1ccccc1)CC(=O)OC(C)(C)C [Compound 95, Z-Tyr(OtBu)- Val-Ala-Asp (OtBu) phenyl vinyl sulfone]
- effects on the clinical course of EAE ([1]; FIG. 3, i.p. from day 14 to 19 post immunization, versus placebo): ameliorating effects
